Bridge positions count the residues as written; N and C are the ends. Ends that are not written are not given here. Peptide text beside a SMILES is read from it.
Assays:
[1] = tested on: Single-donor human red blood cells; test: Hemolysis assay; assay type: cell-based
Protocol: Single-donor human red blood cells (Innovative Research, no. IWB3ALS) were washed in PBS and adjusted to a concentration of 1 × 10^9 cells/ml. Each peptide was added individually to 200 μl of cells at a concentration of either 300 μg/ml (SySA library) or 128 μg/ml (SySA-5 optimization library) in a 96-well polypropylene plate (Corning, 3879). PBS alone and 1% Triton X-100 were used for background normalization and 100% hemolysis, respectively. Each reaction was set up in triplicate. Plates were incubated for 3 hours at 37°C. Following incubation, samples were centrifuged at 800g for 20 min, and 100 μl of supernatant was transferred to a flat-bottom 96-well plate (Genesse, 25-104). Percent hemolysis for each sample was determined by normalizing the absorbance at 540 nm for each sample to the average background and dividing by the average absorbance for 1% Triton X-100 (100% hemolysis). Error bars represent 1 SD of triplicate samples.

Escherichia coli W3110 = assay type: cell-based; conditions: for Ec W3110 MIC MH: E. coli W3110, MH medium; for Ec W3110 MIC RPMI: E. coli W3110, RPMI medium

| Compound | hemolysis [1] | Ec W3110 MIC MH (Escherichia coli W3110) | Ec W3110 MIC RPMI (Escherichia coli W3110) | %Hemo [1] |
| --- | --- | --- | --- | --- |
| CRVKINIDNRSRRVKLQVQC (disulfide 1-20 (inferred)) [SySA-6] | 0.66% | > 256 µg/mL | > 256 µg/mL | – |
| CLRVRVNDRGSGVKITVEVC (disulfide 1-20 (inferred)) [SySA-39] | 0.28% | > 256 µg/mL | > 256 µg/mL | – |
| CRVRINIDNRSGRVKLEVQC (disulfide 1-20 (inferred)) [SySA-87] | 4.63% | > 256 µg/mL | > 256 µg/mL | – |
| CLTVRVNNRRSGVRVSVQVC (disulfide 1-20 (inferred)) [SySA-43] | 0.11% | > 256 µg/mL | > 256 µg/mL | – |
| CC(C)C[C@@H]1NC(=O)CNC(=O)[C@H](CCCNC(=N)N)NC(=O)[C@H](CCCNC(=N)N)NC(=O)[C@H](CCCNC(=N)N)NC(=O)[C@H](CC(N)=O)NC(=O)[C@H](CC(N)=O)NC(=O)[C@H](CC(C)C)NC(=O)[C@H](CCCNC(=N)N)NC(=O)[C@H](C(C)C)NC(=O)[C@H]([C@@H](C)O)NC(=O)[C@H](C(C)C)NC(=O)[C@@H](N)CSSC[C@@H](C(=O)O)NC(=O)[C@H](C(C)C)NC(=O)[C@H](CCC(N)=O)NC(=O)[C@H](CC(C)C)NC(=O)[C@H](CO)NC(=O)[C@H](C(C)C)NC(=O)[C@H](CCCNC(=N)N)NC1=O [SyPA-2] (H-CVTVRLNNRRRGLRVSLQVC-OH; disulfide 1-20) | – | – | – | 3.75% |
| CC[C@H](C)[C@@H]1NC(=O)[C@H](CCCNC(=N)N)NC(=O)[C@H](CC(C)C)NC(=O)[C@@H](N)CSSC[C@@H](C(=O)O)NC(=O)[C@H](C(C)C)NC(=O)[C@H](CCC(N)=O)NC(=O)[C@H](C(C)C)NC(=O)[C@H](CO)NC(=O)[C@H](C(C)C)NC(=O)[C@H](CCCNC(=N)N)NC(=O)[C@H](CC(C)C)NC(=O)CNC(=O)[C@H](CCCNC(=N)N)NC(=O)[C@H](CCCNC(=N)N)NC(=O)CNC(=O)[C@H](CC(N)=O)NC(=O)[C@H](CC(N)=O)NC(=O)[C@H](CC(C)C)NC(=O)[C@H](CCCNC(=N)N)NC1=O [SyPA-4] (H-CLRIRLNNGRRGLRVSVQVC-OH; disulfide 1-20) | – | – | – | 1.59% |
| CC[C@H](C)[C@@H]1NC(=O)[C@H](CCCNC(=N)N)NC(=O)[C@H](CC(C)C)NC(=O)[C@@H](N)CSSC[C@@H](C(=O)O)NC(=O)[C@H](C(C)C)NC(=O)[C@H](CCC(N)=O)NC(=O)[C@H](CC(C)C)NC(=O)[C@H](CO)NC(=O)[C@H](C(C)C)NC(=O)[C@H](CCCNC(=N)N)NC(=O)[C@H](CC(C)C)NC(=O)CNC(=O)[C@H](CCCNC(=N)N)NC(=O)[C@H](CCCNC(=N)N)NC(=O)[C@H](CCCNC(=N)N)NC(=O)[C@H](CC(=O)O)NC(=O)[C@H](CC(N)=O)NC(=O)[C@H](CC(C)C)NC(=O)[C@H](CCCNC(=N)N)NC1=O [SyPA-5] (H-CLRIRLNDRRRGLRVSLQVC-OH; disulfide 1-20) | – | – | – | 1.89% |
| CC(C)C[C@@H]1NC(=O)[C@H](CCCNC(=N)N)NC(=O)CNC(=O)[C@H](CCCNC(=N)N)NC(=O)[C@H](CCCNC(=N)N)NC(=O)[C@H](CC(N)=O)NC(=O)[C@H](CC(N)=O)NC(=O)[C@H](CC(C)C)NC(=O)[C@H](CCCNC(=N)N)NC(=O)[C@H](C(C)C)NC(=O)[C@H](CCCNC(=N)N)NC(=O)[C@H](CC(C)C)NC(=O)[C@@H](N)CSSC[C@@H](C(=O)O)NC(=O)[C@H](C(C)C)NC(=O)[C@H](CCC(N)=O)NC(=O)[C@H](CC(C)C)NC(=O)[C@H](CO)NC(=O)[C@H](C(C)C)NC(=O)[C@H](CCCNC(=N)N)NC1=O [SyPA-8] (H-CLRVRLNNRRGRLRVSLQVC-OH; disulfide 1-20) | – | – | – | 2.87% |
| CC(C)C[C@@H]1NC(=O)[C@H](CCCNC(=N)N)NC(=O)[C@H](CCCNC(=N)N)NC(=O)[C@H](CCCNC(=N)N)NC(=O)CNC(=O)[C@H](CC(N)=O)NC(=O)[C@H](CC(N)=O)NC(=O)[C@H](CC(C)C)NC(=O)[C@H](CCCNC(=N)N)NC(=O)[C@H](C(C)C)NC(=O)[C@H](CCCNC(=N)N)NC(=O)[C@H](C(C)C)NC(=O)[C@@H](N)CSSC[C@@H](C(=O)O)NC(=O)[C@H](C(C)C)NC(=O)[C@H](CCC(N)=O)NC(=O)[C@H](CC(C)C)NC(=O)[C@H](CO)NC(=O)[C@H](C(C)C)NC(=O)[C@H](CCCCN)NC1=O [SyPA-1] (H-CVRVRLNNGRRRLKVSLQVC-OH; disulfide 1-20) | – | – | – | 1.30% |

From paper PMC9833666, “Designing and identifying β-hairpin peptide macrocycles with antibiotic potential” (Science Advances, 2023)
